pIC50: −log10 of the molar value.

One test concerns MDA-MB-231. The test can be described thus: Growth inhibition of human ER-negative MDA-MB-231 cells incubated for 72 hrs by cell counter method. Type of test: functional. Conditions: MDA-MB-231, 72 h.
The test system of a further test is MCF7. The test can be described thus: Growth inhibition of human ER-positive MCF7 cells incubated for 72 hrs by cell counter method. Type of test: functional. The settings on record: MCF7, 72 h.
In a further test the target is T1, Aromatase (Homo sapiens, UniProt P11511).
T1 sequence (P11511 whole entry): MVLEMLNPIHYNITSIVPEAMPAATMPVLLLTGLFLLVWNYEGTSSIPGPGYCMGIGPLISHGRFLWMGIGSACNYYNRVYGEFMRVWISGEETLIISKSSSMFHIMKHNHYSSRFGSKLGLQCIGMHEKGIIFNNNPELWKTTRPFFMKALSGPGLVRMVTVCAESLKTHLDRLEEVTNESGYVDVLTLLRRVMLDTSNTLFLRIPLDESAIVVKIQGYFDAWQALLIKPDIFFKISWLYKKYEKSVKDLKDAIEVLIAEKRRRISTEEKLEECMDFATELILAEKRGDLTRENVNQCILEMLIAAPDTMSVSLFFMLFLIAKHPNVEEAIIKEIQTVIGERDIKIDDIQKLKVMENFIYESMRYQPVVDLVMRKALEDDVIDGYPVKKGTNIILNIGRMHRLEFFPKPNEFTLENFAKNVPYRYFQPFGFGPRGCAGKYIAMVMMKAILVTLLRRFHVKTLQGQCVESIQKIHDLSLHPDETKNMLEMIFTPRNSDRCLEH
In words: Inhibition of recombinant human aromatase preincubated for 10 mins followed by substrate and beta-NADP+ addition and measured for 60 mins by fluorescence based assay.

One may read the GI50 as the concentration that inhibits growth by half. Read a low GI50 as greater sensitivity of the cells. With `O=c1c2ccccc2oc2cc(Cn3ccnc3)ccc12`, the concentration for 50% growth inhibition (GI50) amounted to 30.4 µM with MDA-MB-231 and 19.9 µM in the test with MCF7.

On to `O=c1c2ccccc2oc2c(Cn3ccnc3)cccc12`, for which the GI50 in the test on MDA-MB-231 stood at 58.3 µM; in the test with MCF7, 69.1 µM.

For orientation: pIC50 means the IC50 on a negative log10 scale, so that one unit is a factor of ten. Take `CCC#CCOc1ccc2c(=O)c3ccc(Cn4ccnc4)cc3oc2c1`: the GI50 in the test with MDA-MB-231 and in the test with MCF7 was greater than 100 µM in each case. The negative logarithm of the IC50 (pIC50) at Aromatase was 6.11.

`N#Cc1ccc(C(c2ccc(C#N)cc2)n2cncn2)cc1` [LETROZOLE] returned a GI50 in the test on MDA-MB-231 of 34 µM.

Turning to `CCC#CCOc1cc(Cn2ccnc2)c2oc3ccccc3c(=O)c2c1`, the GI50 in the test with MDA-MB-231 is 21.1 µM; in the test on MCF7 it was 52.3 µM. Moreover, the pIC50 on Aromatase was 5.26.

On to `O=c1c2ccccc2oc2cccc(Cn3ccnc3)c12`, for which the GI50 with MDA-MB-231 is 44.3 µM; in the test with MCF7, 59 µM.

In the case of `CCC#CCOc1cc(Cn2ccnc2)c2c(=O)c3ccccc3oc2c1`, the GI50 turned out to be 17.5 µM in the test on MDA-MB-231 and 6.3 µM with MCF7. Further, the pIC50 at Aromatase is 5.55.

The record behind these values is ChEMBL document CHEMBL4610109, “Targeting Orthosteric and Allosteric Pockets of Aromatase via Dual-Mode Novel Azole Inhibitors” (ACS Med Chem Lett, 2020).
